This is an account of results in ChEMBL document CHEMBL1149235, “Tetrahydronaphthalene-derived amino alcohols and amino ketones as potent and selective inhibitors of the delayed rectifier potassium current IKs” (Bioorg Med Chem Lett, 2004).

Test [1] in a line: Inhibitory activity against slow component of delayed rectifier potassium current IKs in guinea pig ventricular myocytes. The format is cell-based, Cavia porcellus, Ventricular myocyte.
A short description of test [2]: Inhibition of rapid component of delayed rectifier potassium current IKr in guinea pig ventricular myocytes. It is filed as cell-based, Cavia porcellus, Ventricular myocyte.
Setting [3] is: Cavia porcellus, Ventricular myocyte.

On to `O=C1c2ccc(Oc3ccccc3)cc2CCC1CCN1CCC(c2ccccc2)CC1` (stereo unspecified), for which the IC50 – broadly, the concentration needed to halve the response being measured – in test [1] (setting [3]) was 1500 nM.

In the case of `O=C1c2ccc(-c3ccccc3)cc2CCC1CCN1CCC(c2ccccc2)CC1` (stereo unspecified), the IC50 in test [1] (setting [3]) is 2400 nM.

For `COc1ccc2c(c1)CCC(CN1CCC(c3ccccc3)CC1)C2=O` (stereo unspecified), the results for the IC50 in test [2] (setting [3]) and in test [1] (setting [3]) were 4000 nM and 5000 nM, respectively.

`O=C1c2ccc(OCc3cccc(-c4ccccc4)c3)cc2CCC1CCN1CCC(c2ccccc2)CC1` (stereo unspecified) gave an IC50 in test [1] (setting [3]) of 470 nM.

For `O=C1c2ccc(OCc3ccccn3)cc2CCC1CCN1CCC(c2ccccc2)CC1` (stereo unspecified), in test [1] (setting [3]), the IC50 was 1300 nM.

The molecule `O[C@H]1c2ccc(OCc3ccccc3-c3ccccc3)cc2CC[C@H]1CCN1CCC(c2ccccc2)CC1` registered an IC50 in test [1] (setting [3]) of 390 nM.

`O=C1c2ccc(OCc3cccnc3)cc2CCC1CCN1CCC(c2ccccc2)CC1` (stereo unspecified): the IC50 in test [1] (setting [3]) was 380 nM. This IC50 and that of the molecule before are within 1.5-fold of each other.

`O=C1c2ccc(OCc3ccc(-c4ccccc4)cc3)cc2CCC1CCN1CCC(c2ccccc2)CC1` (stereo unspecified) registered a concentration for half-maximal inhibition (IC50) in test [1] (setting [3]) of 1000 nM.

In the case of `O=C1c2ccc(OCc3ccncc3)cc2CCC1CCN1CCC(c2ccccc2)CC1` (stereo unspecified), the IC50 in test [1] (setting [3]) was determined as 200 nM.

Consider `O=C1c2ccc(OCc3ccccc3)cc2CCC1CC(=O)N1CCC(c2ccccc2)CC1` (stereo unspecified), for which the IC50 in test [1] (setting [3]) was more than 30000 nM.

For the molecule `O=C1c2ccc(OCc3ccccc3-c3ccccc3)cc2CCC1CCN1CCC(c2ccccc2)CC1` (single isomer, unassigned), the IC50 in test [2] (ventricular myocyte) stood at 1600 nM; in test [1] (ventricular myocyte) it was 340 nM.

As for `OC1c2ccc(OCc3ccccc3)cc2CCC1CCN1CCC(c2ccccc2)CC1` (single isomer, unassigned), the values for the IC50 in test [2] (ventricular myocyte) and in test [1] (ventricular myocyte) were 110 nM and 1300 nM, respectively.

For `COc1ccc2c(c1)CCC(CCN1CCC(c3ccccc3)CC1)C2=O` (single isomer, unassigned), the IC50 in test [1] (ventricular myocyte) amounted to 1700 nM.

For `O[C@@H]1c2ccc(OCc3ccccc3-c3ccccc3)cc2CC[C@H]1CCN1CCC(c2ccccc2)CC1` (stereo in doubt), in test [1] (ventricular myocyte), the IC50 was determined as 1000 nM.

On to `OC1c2ccc(OCc3ccccc3)cc2CCC1CCN1CCC(c2ccccc2)CC1` (stereo in doubt; 7b), for which the IC50 was determined as 170 nM in test [2] (setting [3]) and 150 nM in test [1] (ventricular myocyte).

`COc1ccc2c(c1)CCC(CCN1CCC(c3ccccc3)CC1)C2=O` (stereo in doubt; 8a): the IC50 in test [2] (setting [3]) was 1700 nM; in test [1] (ventricular myocyte) it was 400 nM.

As to `O=C1c2ccc(OCc3ccccc3)cc2CCC1CCN1CCC(c2ccccc2)CC1` (stereo in doubt; 8b), the IC50 was 160 nM in test [2] (ventricular myocyte) and 69 nM in test [1] (ventricular myocyte).

As to `O=C1c2ccc(OCc3ccccc3-c3ccccc3)cc2CCC1CCN1CCC(c2ccccc2)CC1` (stereo in doubt; 10d), the figures for the half-inhibitory concentration (IC50) in test [2] (ventricular myocyte) and in test [1] (ventricular myocyte) were 260 nM and 30 nM, respectively.

In test [1] (ventricular myocyte), `O[C@@H]1c2ccc(OCc3ccccc3-c3ccccc3)cc2CC[C@H]1CCN1CCC(c2ccccc2)CC1` (stereo in doubt; 14a) registered an IC50 of 37 nM.
